Test results: the NIST ThermoML archive (doi:10.1021/je900597n)
Several values for one entry are separate records, joined by “and”; a condition that tells them apart may be missing. Equal entries are not always repeated.

Experiments:
[1] = xn = mol fraction of the nth substance listed; settings: 101 kPa, Liquid
[2] = 101 kPa, Liquid; for speed of sound: Pulse-echo method

COC(C)(C)C [2-methoxy-2-methylpropane] + CCCN
[1], x1 = 1
Settings	mass density [kg/m3]	speed of sound [m/s]
288.15 K	747.273	1086.6
293.15 K	742.072	1063.4
298.15 K	736.826	1040.3
303.15 K	731.532	1017.4
308.15 K	726.185	994.68

COC(C)(C)C [2-methoxy-2-methylpropane] + CCCNCCC
[1], Pulse-echo method, x1 = 1
Settings	speed of sound [m/s]
288.15 K	1086.9
293.15 K	1063.4
298.15 K	1040.3
303.15 K	1017.4
308.15 K	994.68

[1], x1 = 1
Settings	mass density [kg/m3]
288.15 K	747.273
293.15 K	742.072
298.15 K	736.826
303.15 K	731.532
308.15 K	726.185

CCCN [propan-1-amine]
[2]
Settings	mass density [kg/m3]	speed of sound [m/s]
288.15 K	725.08	1266.1
293.15 K	719.859	1242
298.15 K	714.586	1218
303.15 K	709.269	1194
308.15 K	703.911	1169.9

CCCNCCC [dipropylamine]
[2]
Settings	mass density [kg/m3]	speed of sound [m/s]
288.15 K	745.064	1235.1
293.15 K	740.501	1213.4
298.15 K	735.924	1191.9
303.15 K	731.333	1170.4
308.15 K	726.732	1149

CCCN [propan-1-amine] + COC(C)(C)C
[1]
Settings	mass density, 288.15 K [kg/m3]	mass density, 293.15 K [kg/m3]	mass density, 298.15 K [kg/m3]	mass density, 303.15 K [kg/m3]	mass density, 308.15 K [kg/m3]	speed of sound, 288.15 K [m/s]	speed of sound, 293.15 K [m/s]	speed of sound, 298.15 K [m/s]	speed of sound, 303.15 K [m/s]	speed of sound, 308.15 K [m/s]
x2 = 0	725.08	719.859	714.586	709.269	703.911	1266.1	1242	1218	1194	1169.9
x2 = 0.0709	727.856	722.621	717.583	712.014	706.643	1251.4	1227.2	1203.1	1179.1	1155.3
x2 = 0.0971	729.03	723.784	718.729	713.152	707.762	1244	1220	1196	1172.2	1148.2
x2 = 0.2112	733	727.745	722.617	717.065	711.678	1214.4	1190.5	1166.5	1142.9	1119.1
x2 = 0.2915	734.914	729.567	724.408	718.869	713.452	1204.2	1180.3	1156.2	1132.6	1109
x2 = 0.3956	737.188	731.938	726.763	721.277	715.895	1174.4	1150.7	1127	1103.4	1079.8
x2 = 0.5551	740.109	734.863	729.642	724.214	718.801	1146	1122.5	1098.9	1075.4	1052.2
x2 = 0.7171	742.564	737.327	732.071	726.691	721.338	1120.6	1097.1	1073.7	1050.5	1027.3
x2 = 0.7747	743.456	738.22	732.941	727.578	722.269	1111.6	1088	1064.5	1041	1017.8
x2 = 0.8604	744.503	739.27	733.994	728.673	723.302	1101.2	1077.8	1054.2	1030.9	1007.5
x2 = 0.9268	745.6	740.382	735.117	729.806	724.452	1094.2	1070.7	1047.5	1024.2	1001.1

COC(C)(C)C [2-methoxy-2-methylpropane]
[2]
Settings	mass density [kg/m3]	speed of sound
288.15 K	747.273	1086.6 m/s and 1086.9 m/s
293.15 K	742.072	1063.4 m/s
298.15 K	736.826	1040.3 m/s
303.15 K	731.532	1017.4 m/s
308.15 K	726.185	994.68 m/s
